# Measurements from ChEMBL document CHEMBL1201862, “PubChem BioAssay data set” (2004).
#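 These data come from cells grown in 96-well plates and exposed to compound for 48 hours at five concentrations. At the GI50, growth is halved.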 The source made the active and inactive calls. No stated cut-off is given here; in the data, active = GI50 up to about 1.1 µM and inactive = higher.
# How the values were obtained:
# Assay in all cases: NCI tumour cell line growth inhibition, 48 h
# 786-0 = tested on: 786-0
# A498 = tested on: A498
# A549 = tested on: A549
# ACHN = tested on: ACHN
# BT-549 = tested on: BT-549
# CAKI-1 = tested on: CAKI-1
# CCRF-CEM = tested on: CCRF-CEM
# COLO 205 = tested on: COLO 205
# DU-145 = tested on: DU-145
# EKVX = tested on: EKVX
# HCC 2998 = tested on: HCC 2998
# HCT-116 = tested on: HCT-116
# HCT-15 = tested on: HCT-15
# HL-60 = tested on: HL-60
# HOP-62 = tested on: HOP-62
# HOP-92 = tested on: HOP-92
# HT-29 = tested on: HT-29
# Hs-578T = tested on: Hs-578T
# IGROV-1 = tested on: IGROV-1
# K562 = tested on: K562
# KM12 = tested on: KM12
# LOX IMVI = tested on: LOX IMVI
# M14 = tested on: M14
# MCF7 = tested on: MCF7
# MDA-MB-231 = tested on: MDA-MB-231
# MDA-MB-435 = tested on: MDA-MB-435
# MDA-N = tested on: MDA-N
# MOLT-4 = tested on: MOLT-4
# Malme-3M = tested on: Malme-3M
# NCI-H226 = tested on: NCI-H226
# NCI-H23 = tested on: NCI-H23
# NCI-H460 = tested on: NCI-H460
# NCI-H522 = tested on: NCI-H522
# NCI/ADR-RES = tested on: NCI/ADR-RES
# OVCAR-3 = tested on: OVCAR-3
# OVCAR-4 = tested on: OVCAR-4
# OVCAR-5 = tested on: OVCAR-5
# OVCAR-8 = tested on: OVCAR-8
# PC-3 = tested on: PC-3
# RPMI-8226 = tested on: RPMI-8226
# RXF 393 = tested on: RXF 393
# SF-268 = tested on: SF-268
# SF-295 = tested on: SF-295
# SK-MEL-28 = tested on: SK-MEL-28
# SK-MEL-2 = tested on: SK-MEL-2
# SK-MEL-5 = tested on: SK-MEL-5
# SK-OV-3 = tested on: SK-OV-3
# SN12C = tested on: SN12C
# SNB-19 = tested on: SNB-19
# SNB-75 = tested on: SNB-75
# SR = tested on: SR
# SW-620 = tested on: SW-620
# T47D = tested on: T47D
# U-251 = tested on: U-251
# UACC-257 = tested on: UACC-257
# UACC-62 = tested on: UACC-62
# UO-31 = tested on: UO-31
# SF-539 = tested on: SF-539
# TK-10 = tested on: TK-10
compound,measurement,setting,value
CC(C)(CO)CNc1cc(=O)[nH]c(N)n1,GI50,786-0,> 100 µM (inactive)
same,GI50,A498,> 100 µM (inactive)
same,GI50,A549,> 100 µM (inactive)
same,GI50,ACHN,> 100 µM (inactive)
same,GI50,BT-549,> 100 µM (inactive)
same,GI50,CAKI-1,> 100 µM (inactive)
same,GI50,CCRF-CEM,> 100 µM (inactive)
same,GI50,COLO 205,> 100 µM (inactive)
same,GI50,DU-145,> 100 µM (inactive)
same,GI50,EKVX,> 100 µM (inactive)
same,GI50,HCC 2998,> 100 µM (inactive)
same,GI50,HCT-116,> 100 µM (inactive)
same,GI50,HCT-15,> 100 µM
same,GI50,HL-60,> 100 µM (inactive)
same,GI50,HOP-62,> 100 µM (inactive)
same,GI50,HOP-92,> 100 µM (inactive)
same,GI50,HT-29,> 100 µM (inactive)
same,GI50,Hs-578T,> 100 µM (inactive)
same,GI50,IGROV-1,> 100 µM (inactive)
same,GI50,K562,> 100 µM (inactive)
same,GI50,KM12,> 100 µM (inactive)
same,GI50,LOX IMVI,> 100 µM (inactive)
same,GI50,M14,> 100 µM (inactive)
same,GI50,MCF7,> 100 µM (inactive)
same,GI50,MDA-MB-231,> 100 µM (inactive)
same,GI50,MDA-MB-435,> 100 µM (inactive)
same,GI50,MDA-N,> 100 µM (inactive)
same,GI50,MOLT-4,> 100 µM (inactive)
same,GI50,Malme-3M,> 100 µM (inactive)
same,GI50,NCI-H226,> 100 µM (inactive)
same,GI50,NCI-H23,> 100 µM (inactive)
same,GI50,NCI-H460,> 100 µM (inactive)
same,GI50,NCI-H522,> 100 µM (inactive)
same,GI50,NCI/ADR-RES,> 100 µM (inactive)
same,GI50,OVCAR-3,> 100 µM (inactive)
same,GI50,OVCAR-4,> 100 µM (inactive)
same,GI50,OVCAR-5,> 100 µM (inactive)
same,GI50,OVCAR-8,> 100 µM (inactive)
same,GI50,PC-3,> 100 µM (inactive)
same,GI50,RPMI-8226,> 100 µM (inactive)
same,GI50,RXF 393,> 100 µM (inactive)
same,GI50,SF-268,> 100 µM (inactive)
same,GI50,SF-295,> 100 µM (inactive)
same,GI50,SK-MEL-28,> 100 µM (inactive)
same,GI50,SK-MEL-2,> 100 µM (inactive)
same,GI50,SK-MEL-5,> 100 µM (inactive)
same,GI50,SK-OV-3,> 100 µM (inactive)
same,GI50,SN12C,> 100 µM (inactive)
same,GI50,SNB-19,> 100 µM (inactive)
same,GI50,SNB-75,> 100 µM (inactive)
same,GI50,SR,> 100 µM (inactive)
same,GI50,SW-620,> 100 µM (inactive)
same,GI50,T47D,> 100 µM (inactive)
same,GI50,U-251,> 100 µM (inactive)
same,GI50,UACC-257,> 100 µM (inactive)
same,GI50,UACC-62,> 100 µM (inactive)
same,GI50,UO-31,> 100 µM (inactive)
CC(=O)Oc1ccc(/C=C/C(=O)NCCOC(=O)/C=C/c2ccc(OC(C)=O)c(OC(C)=O)c2)cc1OC(C)=O,GI50,786-0,19.5 µM (inactive)
same,GI50,A498,31.7 µM (inactive)
same,GI50,A549,57.5 µM (inactive)
same,GI50,ACHN,26.2 µM (inactive)
same,GI50,BT-549,38.7 µM (inactive)
same,GI50,CAKI-1,32.8 µM (inactive)
same,GI50,CCRF-CEM,0.571 µM (active)
same,GI50,COLO 205,42.5 µM (inactive)
same,GI50,DU-145,20.6 µM (inactive)
same,GI50,EKVX,34.7 µM (inactive)
same,GI50,HCC 2998,34.3 µM (inactive)
same,GI50,HCT-116,14.5 µM (inactive)
same,GI50,HCT-15,34.8 µM
same,GI50,HOP-62,21.9 µM (inactive)
same,GI50,HOP-92,28.2 µM (inactive)
same,GI50,HT-29,25.6 µM (inactive)
same,GI50,Hs-578T,33.6 µM (inactive)
same,GI50,IGROV-1,33 µM (inactive)
same,GI50,K562,32.4 µM (inactive)
same,GI50,KM12,32.4 µM (inactive)
same,GI50,LOX IMVI,13.9 µM (inactive)
same,GI50,M14,27.8 µM (inactive)
same,GI50,MCF7,29.5 µM (inactive)
same,GI50,MDA-MB-231,45.2 µM (inactive)
same,GI50,MDA-MB-435,31.7 µM (inactive)
same,GI50,MDA-N,22.5 µM (inactive)
same,GI50,MOLT-4,4.8 µM (inactive)
same,GI50,Malme-3M,28.5 µM (inactive)
same,GI50,NCI-H23,26.4 µM (inactive)
same,GI50,NCI-H460,32 µM (inactive)
same,GI50,NCI-H522,8.97 µM (inactive)
same,GI50,NCI/ADR-RES,70.1 µM (inactive)
same,GI50,OVCAR-3,16.1 µM (inactive)
same,GI50,OVCAR-4,18.4 µM (inactive)
same,GI50,OVCAR-5,23.8 µM (inactive)
same,GI50,OVCAR-8,25.2 µM (inactive)
same,GI50,PC-3,34 µM (inactive)
same,GI50,RPMI-8226,26.2 µM (inactive)
same,GI50,RXF 393,11.7 µM (inactive)
same,GI50,SF-268,20 µM (inactive)
same,GI50,SF-295,23.7 µM (inactive)
same,GI50,SF-539,35.7 µM (inactive)
same,GI50,SK-MEL-28,34.4 µM (inactive)
same,GI50,SK-MEL-2,46.5 µM (inactive)
same,GI50,SK-MEL-5,17.6 µM (inactive)
same,GI50,SK-OV-3,42 µM (inactive)
same,GI50,SN12C,26.1 µM (inactive)
same,GI50,SNB-19,21.2 µM (inactive)
same,GI50,SNB-75,20.1 µM (inactive)
same,GI50,SR,14.1 µM (inactive)
same,GI50,SW-620,19.3 µM (inactive)
same,GI50,T47D,20.4 µM (inactive)
same,GI50,TK-10,23 µM (inactive)
same,GI50,U-251,28.4 µM (inactive)
same,GI50,UACC-257,31.3 µM (inactive)
same,GI50,UACC-62,18.7 µM (inactive)
same,GI50,UO-31,22.9 µM (inactive)
